In ChEMBL document CHEMBL1201862, “PubChem BioAssay data set” (2004):
One block for each compound: values may come before it. Activity calls are given as the source filed them.

Key:
[1] = target: Cytochrome P450 2C19 (Homo sapiens, UniProt P33261); test: Cytochrome panel assay with activity outcomes. Panel member name: p450-cyp2c19 Compounds with AC50 equal or less than 10 uM are considered active; type: functional
[2] = target: T1, Heat shock factor protein 1 (Mus musculus, UniProt P38532); test: decrease of HSF1-responsive luciferase luminescence – cell-based, NIH3T3, dose retest, confirmation (AID 2382); type: functional;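 note: NIH3T3 fibroblasts with HSF1-driven luciferase reporter stressed by proteasome inhibitor MG132; luminescence from HSF1-driven luciferase expression after 8 hours of MG132 stress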
T1 sequence (P38532 whole entry): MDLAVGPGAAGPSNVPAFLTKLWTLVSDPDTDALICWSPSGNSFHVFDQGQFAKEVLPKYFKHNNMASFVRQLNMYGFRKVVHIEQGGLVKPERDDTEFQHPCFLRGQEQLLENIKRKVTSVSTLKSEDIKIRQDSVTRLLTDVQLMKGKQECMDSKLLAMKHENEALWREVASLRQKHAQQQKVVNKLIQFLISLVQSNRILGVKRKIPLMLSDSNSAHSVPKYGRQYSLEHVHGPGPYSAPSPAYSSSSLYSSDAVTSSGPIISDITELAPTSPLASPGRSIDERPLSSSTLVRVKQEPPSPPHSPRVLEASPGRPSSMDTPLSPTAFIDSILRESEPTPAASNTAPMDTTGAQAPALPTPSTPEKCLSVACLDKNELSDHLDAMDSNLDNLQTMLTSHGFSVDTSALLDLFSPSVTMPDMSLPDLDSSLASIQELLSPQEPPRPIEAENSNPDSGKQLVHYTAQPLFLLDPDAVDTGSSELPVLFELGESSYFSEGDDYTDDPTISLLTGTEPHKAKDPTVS

[3] = target: T2, Cytochrome P450 1A2 (Homo sapiens, UniProt P05177)
T2 sequence (P05177 whole entry): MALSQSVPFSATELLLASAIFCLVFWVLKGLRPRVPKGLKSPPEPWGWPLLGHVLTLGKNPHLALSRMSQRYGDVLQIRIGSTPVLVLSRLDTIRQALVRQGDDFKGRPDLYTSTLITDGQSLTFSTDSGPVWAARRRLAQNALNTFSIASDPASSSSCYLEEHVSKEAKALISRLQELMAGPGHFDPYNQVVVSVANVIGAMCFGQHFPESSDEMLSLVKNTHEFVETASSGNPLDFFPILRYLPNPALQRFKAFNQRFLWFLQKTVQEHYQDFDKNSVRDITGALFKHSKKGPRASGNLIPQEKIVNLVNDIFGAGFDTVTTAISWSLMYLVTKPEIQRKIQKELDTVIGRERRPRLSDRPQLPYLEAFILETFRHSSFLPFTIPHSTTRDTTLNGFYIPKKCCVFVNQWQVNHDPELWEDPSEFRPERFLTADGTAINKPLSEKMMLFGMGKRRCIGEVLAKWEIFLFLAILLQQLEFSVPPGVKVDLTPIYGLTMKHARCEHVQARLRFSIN

[4] = Trypanosoma cruzi growth suppression in host cells – NIH3T3 host cells, beta-gal luminescence, confirmation (AID 2044); type: functional, cell-based;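 note: intracellular parasites grown in NIH/3T3 mouse fibroblasts as host cells; luminescent beta-galactosidase reporter signal from transgenic T. cruzi replicating inside host cells; inhibitors lower the luminescence signal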
[5] = NIH3T3 cell viability loss – ATP luminescence, mouse fibroblasts, counter-screen, dose response (AID 2010); type: functional, cell-based;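 note: cells exposed to compound for about 90 hours before reading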
[6] = viability of uninfected HEp-2 cells – cell-based, HTS, cytotoxicity control for RSV inhibitor project, dose response (AID 2410); type: functional; conditions: human respiratory syncytial virus
[7] = system: Streptococcus; test: GAS UMAA2166 growth inhibition – luminescence, BacTiterGlo, counter-screen for streptokinase expression inhibitor project, dose response (AID 1915); type: functional, organism-based;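 note: potency for reduction of bacterial viability or growth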
[8] = system: Streptococcus sp. 'group A'; test: Streptococcus pyogenes SK(-)GAS viability under kanamycin – luminescence, BacTiterGlo, confirmation, counter-screen for streptokinase expression inhibitor project, dose response (AID 1900); type: functional, organism-based

Cytochrome P450 2C19, sequence (P33261 whole entry): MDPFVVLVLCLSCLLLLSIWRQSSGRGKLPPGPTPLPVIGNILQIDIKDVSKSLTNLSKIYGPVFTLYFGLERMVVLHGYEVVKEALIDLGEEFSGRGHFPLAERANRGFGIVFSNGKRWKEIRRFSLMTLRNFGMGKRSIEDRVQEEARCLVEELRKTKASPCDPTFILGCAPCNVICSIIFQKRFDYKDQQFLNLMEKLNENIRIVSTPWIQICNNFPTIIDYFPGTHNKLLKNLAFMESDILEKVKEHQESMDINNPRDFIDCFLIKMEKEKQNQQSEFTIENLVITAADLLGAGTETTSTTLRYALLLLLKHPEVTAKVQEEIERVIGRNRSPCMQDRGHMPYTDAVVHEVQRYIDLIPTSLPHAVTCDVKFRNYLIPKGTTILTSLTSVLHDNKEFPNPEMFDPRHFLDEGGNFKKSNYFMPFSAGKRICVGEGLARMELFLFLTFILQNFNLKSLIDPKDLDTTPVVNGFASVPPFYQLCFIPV

SMILES: CCc1ccccc1NC(=O)NC1CC2CCC(C1)N2Cc1cccs1 (stereo not drawn)
AC50 ([1]; read-out: AC50): 17.8 µM (inconclusive)

EC50 [2]: > 195 µM (not active)
SMILES: COC(=O)CCC(=O)NNC(=O)c1cccc(Br)c1

AC50 [3]: 2 µM (inconclusive)
SMILES: O=c1c(-c2ccc(F)cc2)nc2cnc(Nc3ccccc3)nc2n1Cc1cccs1

SMILES: C/C(Cn1cnc([N+](=O)[O-])n1)=N\NC(=O)c1cccc(F)c1
EC50 [4]: 1.39 µM (active)
EC50 [5]: > 60 µM (not active)

SMILES: COc1cc(NC(=O)COC(=O)/C=C/c2c(C)nn(-c3ccc(F)cc3)c2Cl)cc(OC)c1
EC50 [4]: 0.691 µM (active)
EC50 [5]: > 60 µM (not active)

SMILES: Cc1cccn2cc(-c3cccc(S(=O)(=O)N4CC(C)OC(C)C4)c3)nc12 (stereo not drawn)
CC50 [6]: 44.6 µM (active)

SMILES: Cc1c(Cl)ccc2c(C(=O)Nc3cc(C(C)(C)C)on3)cc(-c3ccccn3)nc12
EC50 [4]: 1.95 µM (active)
EC50 [5]: > 60 µM (not active)

AC50 [3]: 3.55 µM (inconclusive)
SMILES: O=C(Nc1ccccc1)N1CCSc2cc(Cl)ccc21

SMILES: CCOC(=O)N1CCN(c2cc(N)c([N+](=O)[O-])cc2F)CC1
CC50 [6]: > 50 µM (active)

SMILES: C#C[C@@]1(O)CC[C@@H]2[C@@H]3CCC4=CC(=O)CC[C@@]4(C)[C@H]3CC[C@]21C
AC50 ([1]; read-out: AC50): 0.501 µM (inconclusive)

AC50 [3]: 22.4 µM (inconclusive)
SMILES: Cc1cccc(-n2c(=O)c3c(n4cnnc24)-c2ccccc2CC32CCCCC2)c1

SMILES: CN1CCC(OC(=O)c2ccccc2)CC1
EC50 [4]: 0.263 µM (active)
EC50 [5]: 58.6 µM (active)

AC50 [3]: 3.55 µM (inconclusive)
SMILES: Cc1ccc2oc(-c3cccc(NC(=S)NC(=O)/C=C/c4ccco4)c3)nc2c1

EC50 [2]: 6 µM (active)
SMILES: CCOC(=O)c1cnc2ccccc2c1Nc1ccc2c(c1)OCCO2

SMILES: CN/C(=N/CCSCc1nc[nH]c1C)NC#N [CIMETIDINE]
AC50 [3]: 50.1 µM (inconclusive)

EC50 [2]: > 195 µM (not active)
SMILES: c1cc2c(cc1C1CCCN1)OCCCO2 (stereo not drawn)

EC50 [2]: > 195 µM (not active)
SMILES: CSc1nc2ccc(NS(=O)(=O)c3ccc([N+](=O)[O-])cc3)cc2s1

EC50 [2]: > 195 µM (not active)
SMILES: O=C(c1cc(Cl)ccc1Cl)N1CCOCC1

SMILES: CCCC(C)n1nc(O)c2c1NC(=O)CSC2c1ccc(OC)c(OC)c1 (stereo not drawn)
EC50 [2]: > 195 µM (not active)

SMILES: COC(=O)c1ccc(/C=C/c2ccc3cccc(OC(C)=O)c3n2)cc1
EC50 [7]: 8.49 µM (active)
EC50 [8]: 2.08 µM (active)

SMILES: Brc1ccc(-c2csc(N/N=C/c3cccnc3)n2)cc1
EC50 [4]: 1.44 µM (active)
EC50 [5]: > 60 µM (not active)

SMILES: O=C(c1ccc(Cn2c(=S)[nH]c3ccc(N4CCOCC4)cc3c2=O)cc1)N1CCN(c2ccc(F)cc2)CC1
EC50 [4]: 0.583 µM (active)
EC50 [5]: > 60 µM (not active)

SMILES: COC(=O)c1ccc(OC)c(CN2CCCN(Cc3cc(C)ccc3C)S2(=O)=O)c1
EC50 [4]: 1.11 µM (active)
EC50 [5]: > 60 µM (not active)

AC50 ([1]; read-out: AC50): 2.82 µM (inconclusive)
SMILES: Brc1ccc2ncnc(Nc3cccc4ccccc34)c2c1

AC50 [1]: inconclusive
SMILES: O=C(O)c1cccnc1SCC(=O)N1CCCCCC1

SMILES: SC(COCc1ccccc1)CN1CCN(Cc2ccc3c(c2)OCO3)CC1 (stereo not drawn)
EC50 [4]: 2.1 µM (active)
EC50 [5]: > 60 µM (not active)

SMILES: c1ccc(CCNc2nc(-c3ccncc3)cs2)cc1
EC50 [4]: 1.8 µM (active)
EC50 [5]: > 60 µM (not active)

EC50 [2]: > 195 µM (not active)
SMILES: O=C(CCCOc1ccccc1)Nc1nccs1

AC50 ([1]; read-out: AC50): 14.1 µM (inconclusive)
SMILES: Cc1ccc(-c2ccc(CCC(=O)O)n2CC2CCCO2)cc1 (stereo not drawn)

SMILES: CCCCc1ccc(NC(S)=NCc2cccc(OC)c2)cc1
EC50 [4]: 3.51 µM (active)
EC50 [5]: > 60 µM (not active)

AC50 [3]: 14.1 µM (inconclusive)
SMILES: Cc1ccc(SCCNC(=O)c2ccc(C)c(S(=O)(=O)Nc3ccccc3C)c2)cc1

SMILES: CCN(CC)CCCNC(=O)c1oc2ccc(S(=O)(=O)N3CC(C)CC(C)C3)cc2c1C (stereo not drawn)
EC50 [4]: 0.422 µM (active)
EC50 [5]: > 30 µM (not active)

SMILES: O=C(Nc1ccc2c(c1)OCO2)C1CCN(C(=O)CSc2ncnc3ccccc23)CC1
CC50 [6]: 41.4 µM (active)

AC50 ([1]; read-out: AC50): 39.8 µM (inconclusive)
SMILES: CC1CN(C(=O)COc2ncnc3ccccc23)CC(C)O1 (stereo not drawn)

EC50 [2]: > 195 µM (not active)
SMILES: Cn1cc(Cl)c(-c2nnc(S)n2-c2ccc(F)cc2)n1

AC50 ([1]; read-out: AC50): 15.8 µM (inconclusive)
AC50 [3]: 28.2 µM (inconclusive)
SMILES: COc1ccc(NC(=S)N2CCN(C/C=C/c3ccccc3)CC2)cc1OC

SMILES: Cc1ccc(C(=O)C[n+]2cccc3cc(C)ccc32)cc1
EC50 [4]: 11.2 µM (active)
EC50 [5]: > 60 µM (inconclusive)

AC50 ([1]; read-out: AC50): 39.8 µM (inconclusive)
SMILES: Cc1ccc(C(=O)NNC(=O)C2CCCN(c3ncccn3)C2)cc1 (stereo not drawn)

EC50 [2]: > 195 µM (not active)
SMILES: COc1ccc(C(=O)NC(=S)N2CCNC(=O)C2CC(=O)OC(C)C)cc1 (stereo not drawn)

SMILES: CCOC(=O)N1CCN(C(=O)c2ccc3c(c2)NC(=O)/C(=C/c2ccccc2)S3)CC1
EC50 [7]: 4.42 µM (active)
EC50 [8]: 1.48 µM (active)

AC50 ([1]; read-out: AC50): 3.16 µM (inconclusive)
SMILES: O=c1c(-c2ccccc2)nc2cncnc2n1C1CC1

SMILES: C/C(=N/NC(N)=S)c1ccc(Br)s1
EC50 [4]: 2.07 µM (active)
EC50 [5]: > 60 µM (not active)

AC50 [3]: 12.6 µM (inconclusive)
SMILES: O=C(NC(NC(=S)Nc1cc(Cl)ccc1Cl)C(Cl)(Cl)Cl)c1ccco1 (stereo not drawn)

SMILES: CCCCOc1ccccc1C1C(C(=O)OC)=C(C)N(C)C(C)=C1C(=O)OC
CC50 [6]: > 50 µM (active)

EC50 [2]: 69.4 µM (active)
SMILES: CC(C)Oc1ccc(C(=O)O)cc1

AC50 [3]: 28.2 µM (inconclusive)
SMILES: C/C(=N\OC(=O)c1ccc(F)cc1)c1nccs1

SMILES: Cc1c(C(=O)NC(=S)NCc2cccnc2)oc2ccccc12
EC50 [4]: 1.93 µM (active)
EC50 [5]: > 60 µM (inconclusive)

SMILES: CCC1CCc2sc(C(=O)NCC(c3ccc(OC)cc3)N3CCCC3)cc2C1 (stereo not drawn)
EC50 [4]: 1.83 µM (active)
EC50 [5]: > 60 µM (not active)

AC50 [1]: inconclusive
SMILES: COc1cccc(Cn2c(=O)c(-c3ccc(F)cc3)nc3cnc(N4CCOCC4)nc32)c1

SMILES: CSc1nc(-c2ccc(C)cc2)nc(N)c1C#N
CC50 [6]: 49.6 µM (active)

EC50 [2]: > 195 µM (not active)
SMILES: CNC(=O)/C(C#N)=C/c1ccc(-c2ccc(OC)cc2[N+](=O)[O-])o1

SMILES: CCN(c1ccccc1)S(=O)(=O)c1ccc(Cl)c(NC(=O)CN2CCCCCC2)c1
EC50 [4]: 1.04 µM (active)
EC50 [5]: > 60 µM (not active)

AC50 [3]: 17.8 µM (inconclusive)
SMILES: Fc1ccc(Cn2c(SCc3ccc(F)c(F)c3)nnc2C(F)(F)F)cc1

AC50 ([1]; read-out: AC50): 2.51 µM (inconclusive)
SMILES: Cc1ccc(C(C(=O)NCc2ccco2)N(C(=O)CNC(=O)c2cccs2)c2ccc(C)cc2)cc1 (stereo not drawn)

SMILES: COc1cc(/C=N/NC(=O)c2cc(-c3cccc(Br)c3)nc3ccccc23)cc(OC)c1O
CC50 [6]: 36 µM (active)

SMILES: O=C(c1ccccc1)c1sc(N2CCCCCC2)nc1-c1ccccc1
CC50 [6]: 31.1 µM (active)

SMILES: COC(=O)C1(C)C=C2C(=C(C)C(=O)C2C)CN1 (stereo not drawn)
AC50 [3]: 31.6 µM (inconclusive)

AC50 ([1]; read-out: AC50): 25.1 µM (inconclusive)
SMILES: COc1cccc(-c2cc(NCc3cccs3)ncn2)c1

EC50 [2]: > 195 µM (not active)
SMILES: Fc1ccccc1N1CCN(Cc2cc(-c3ccccc3)on2)CC1

SMILES: C[C@@H](C(=O)OC1C[C@H]2CC[C@@H](C1)N2C)c1ccc(Br)cc1 (stereo partly drawn)
AC50 [3]: 39.8 µM (inconclusive)

SMILES: O=[N+]([O-])c1nn(-c2ccc3c(c2)OCCO3)[n+]([O-])c1NC1CCN(Cc2ccccc2)CC1
EC50 [4]: 0.163 µM (active)
EC50 [5]: > 60 µM (not active)

EC50 [2]: > 195 µM (not active)
SMILES: Cc1ccc(S(=O)(=O)N(CC(=O)N2CCc3ccccc3C2)c2ccc(Cl)c(Cl)c2)cc1

SMILES: CCN(Cc1ccncc1)C(=O)c1cc(COc2ccc(C)c(C)c2)on1
EC50 [4]: 1.07 µM (active)
EC50 [5]: > 60 µM (not active)

SMILES: CCCOc1ccc(N2C(=O)CC(SC(=N)N3N=C(c4ccccc4)CC3c3ccccc3)C2=O)cc1 (stereo not drawn)
EC50 [4]: 2.05 µM (active)
EC50 [5]: > 60 µM (not active)

SMILES: COc1ccc(CN(Cc2cccnc2)S(=O)(=O)c2ccc(-n3cnnn3)c(C)c2)cc1OC
EC50 [4]: 2.19 µM (active)
EC50 [5]: > 30 µM (not active)
